# From patent US20050090522A1 (priority 2001, published 2005)
# Read-outs that look alike come from different tables or passages of the source.
# What was measured:
# HIV-1 = HIV-1 single-round infectious luciferase reporter virus (pseudotype) assay in HeLa CD4 CCR5 cells; assay type: cell-based
# How it was run: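 Reporter pseudovirus produced in 293 cells infected HeLa cells expressing CD4/CCR5 at MOI ~0.01, with compound present at <10 μM final. Infection was quantified as luciferase luminescence after 72 h.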
# HeLa cells = assay: Cytotoxicity assay in HeLa cells (MTT dye reduction, CC50)
# Experimental: • Virus production—Human embryonic Kidney cell line, 293, propagated in Dulbecco's Modified Eagle Medium (Life Technologies, Gaithersburg, Md.) containing 10% fetal Bovine serum (FBS, Sigma, St. Louis, Mo.). • Virus infection—Human epithelial cell line, HeLa, expressing the HIV-1 receptors CD4 and CCR^5 was propagated in Dulbecco's Modified Eagle Medium (Life Technologies, Gaithersburg, Md.) containing 10% fetal Bovine serum (FBS, Sigma, St. Louis, Mo.) and supplemented with 0.2 mg/mL Geneticin (Life Technologies, Gaithersburg, Md.) and 0.4 mg/mL Zeocin (Invitrogen, Carlsbad, Calif.). […] Transfections were performed using lipofectAMINE PLUS reagent as described by the manufacturer (Life Technologies, Gaithersburg, Md.). Experiment • 1. Compound was added to HeLa CD4 CCR5 cells plated in 96 well plates at a cell density of 5×10^4 cells per well in 100 μl Dulbecco's Modified Eagle Medium containing 10% fetal Bovine serum at a concentration of […]. • 2. 100 μl of single-round infectious reporter virus in Dulbecco's Modified Eagle Medium was then added to the plated cells and compound at an approximate multiplicity of infection (MOI) of 0.01, resulting in a final volume of 200 μl per well and a final compound concentration of <10 μM. • 3. Samples were harvested 72 h after infection. • 4. Viral infection was monitored by measuring luciferase expression from viral DNA in the infected cells using a luciferase reporter gene assay kit (Roche Molecular Biochemicals, Indianapolis, Ind.). Infected cell supernatants were removed and 50 μl of Dulbecco's Modified Eagle Medium (without phenol red) and 50 μl of luciferase assay reagent reconstituted as described by the manufacturer (Roche Molecular Biochemicals, Indianapolis, Ind.) was added per well. Luciferase activity was then quantified by measuring luminescence using a Wallac microbeta scintillation counter. • 5. […] An EC50 provides a method for comparing the antiviral potency of the compounds of this invention. The effective concentration for fifty percent inhibition (EC50) was calculated with the Microsoft Excel Xlfit curve fitting software. For each compound, curves were generated from percent inhibition calculated at 10 different concentrations by using a four paramenter logistic model (model 205). Table 1 is the key for the data in Tables 2-4. Cytoxicity assays were conducted with the same HeLa using methodology well known in the art.
# For accuracy, the determined measure of viral inhibition is an EC50; but the minimum plasma concentrations which should be maintained in a patient is generally believed to be at least four or five fold higher. […] Lower is better. • 4) Estimating potential exposure in man by measuring parameters such as AUC and rate of clearance by oral and iv dosing in rats. High exposure and low clearance was desired.
# [1] = Human immunodeficiency virus 1, HeLa-CD4/CCR5, read-out: EC50 Group from TABLE 1, HeLa CD4 CCR5 cells, single-round infectious luciferase reporter virus
# [2] = Human immunodeficiency virus 1, HeLa-CD4/CCR5, read-out: EC50 category, HIV-1 single-round reporter virus assay, category 1/2/3 per Table A1 key
# [3] = cytotoxicity, Yes = CC50 above 100 uM, No = not
# [4] = Human immunodeficiency virus 1, HeLa-CD4/CCR5, read-out: EC50 Group from Table 1, Table 4, HeLa CD4 CCR5 cells, single-round luciferase reporter virus
# [5] = Human immunodeficiency virus 1, HeLa-CD4/CCR5, read-out: EC50 category, initial pseudotype assay, key in Table A1
# [6] = HeLa cells, six days with drug, MTT
# [7] = Human immunodeficiency virus 1, HeLa-CD4/CCR5, read-out: EC50 Group from Table 1, Table 2-1, HeLa CD4 CCR5 cells, single-round luciferase reporter virus
SMILES,EC50 (HIV-1; [1]),EC50 (HIV-1; [2]),CC50 > 100 uM (HeLa cells; [3]),further results
"COc1ncc(-c2ncc(OC)c3c(C(=O)C(=O)N4CCN(C(=O)c5ccccc5)CC4)c[nH]c23)c(OC)n1 [Example 13, 1-benzoyl-4-[(4-methoxy-7-(2,4-dimethoxy-pyrimidin-5-yl)-6-azaindol-3-yl)-oxoacetyl]piperazine]",< 1000 nM,0.2 to 1000 nM,Yes,
"COc1cnc(-c2ccn(C)n2)c2[nH]cc(C(=O)C(=O)N3CCN(C(=O)c4ccccc4)CC3)c12 [Example 22, 1-benzoyl-4-[(4-methoxy-7-(1-methyl-pyrazol-3-yl)-6-azaindol-3-yl)-oxoacetyl]piperazine]",< 1000 nM,< 0.2 nM,No,
"COc1cnc(-c2cccn2C)c2[nH]cc(C(=O)C(=O)N3CCN(C(=O)c4ccccc4)CC3)c12 [Example 28, 1-benzoyl-4-[(4-methoxy-7-(11-methyl-pyrrol-2-yl)-6-azaindol-3-yl)oxoacetyl]piperazine]",< 1000 nM,> 1000 nM,No,
"C[C@@H]1CN(C(=O)c2ccccc2)CCN1C(=O)C(=O)c1c[nH]c2c(-c3nccs3)ncc(F)c12 [Example 37, 1-benzoyl-3-(R)-methyl-4-[(4-fluoro-7-(thiazol-2-yl)-6-azaindol-3-yl)-oxoacetyl]piperazine]",< 1000 nM,< 0.2 nM,No,
"COc1cnc(-c2cncnc2)c2[nH]cc(C(=O)C(=O)N3CCN(C(=O)c4ccccc4)CC3)c12 [Example 40, 1-benzoyl-4-[(4-methoxy-7-(pyfimidin-5-yl)-6-azaindol-3-yl)-oxoacetyl]piperazine]",< 1000 nM,0.2 to 1000 nM,No,
"CNC(=O)c1ccc(-c2ncc(OC)c3c(C(=O)C(=O)N4CCN(C(=O)c5ccccc5)CC4)c[nH]c23)o1 [Example 94, 1-benzoyl-4-[(4-methoxy-7-(2-methylaminocarbonyl-furan-5-yl)-6-azaindol-3-yl)-oxoacetyl]piperazine]",< 1000 nM,< 0.2 nM,Yes,
O=C(C(=O)N1CCN(C(=O)c2ccccc2)CC1)c1c[nH]c2c(-c3cnc[nH]3)ncc(F)c12 [Example 148],< 1000 nM,0.2 to 1000 nM,Yes,
"COc1cnc(-n2cccn2)c2[nH]cc(C(=O)C(=O)N3CCN(C(=O)c4ccccc4)CC3)c12 [Example 189, 1-benzoyl-4-[(4-methoxy-7-(1-pyrazolyl)-6-azaindol-3-yl)-oxoacetyl]piperazine]",< 1000 nM,0.2 to 1000 nM,Yes,
"COc1cnc(-n2cc(C)cn2)c2[nH]cc(C(=O)C(=O)N3CCN(C(=O)c4ccccc4)CC3)c12 [Example 191, 1-benzoyl-4-[(4-methoxy-7-(4-methylpyrazol-1-yl)-6-azaindol-3-yl)-oxoacetyl]piperazine]",< 1000 nM,0.2 to 1000 nM,Yes,
"O=C(C(=O)N1CCN(C(=O)c2ccccc2)CC1)c1c[nH]c2c(-n3ccnn3)ccnc12 [Example 206, 1-(4-benzoyl-piperazin-1-yl)-2-(7-[1,2,3]triazol-1-yl-1H-pyrrolo[3,2-b]pyridin-3-yl)-ethane-1,2-dione]",,0.2 to 1000 nM,Yes,EC50 (HIV-1; [4]): < 1000 nM
"O=C(C(=O)N1CCN(C(=O)c2ccccc2)CC1)c1c[nH]c2c(-n3cccn3)ccnc12 [Example 208, 1-(4-Benzoyl-piperazin-1-yl)-2-(7-pyrazol-1-yl-1H-pyrrolo[3,2-b]pyridin-3-yl)-ethane-1,2-dione]",,0.2 to 1000 nM,Yes,EC50 (HIV-1; [4]): < 1000 nM
O=C(C(=O)N1CCN(C(=O)c2ccccc2)CC1)c1c[nH]c2c(-n3nccn3)ncc(F)c12 [Example 217],< 1000 nM,,,EC50 (HIV-1; [5]): 0.2 to 1000 nM; CC50 > 100 uM (HeLa cells; [6]): Yes
O=C(C(=O)N1CCN(C(=O)c2ccccc2)CC1)c1c[nH]c2c(-n3cccc3)ncc(F)c12 [Example 220],< 1000 nM,0.2 to 1000 nM,Yes,
"COc1cnc(-n2nccn2)c2[nH]cc(C(=O)C(=O)N3CCN(C(=O)c4ccccc4)[C@H](C)C3)c12 [Example 256, (R)-1-benzoyl-2-methyl-4-[(4-methoxy-7-(1,2,3-triazol-2-yl)-6-azaindol-3-yl)-oxoacetyl]piperazine]",,,,EC50 (HIV-1; [7]): < 1000 nM; EC50 (HIV-1; [5]): 0.2 to 1000 nM; CC50 > 100 uM (HeLa cells; [6]): Yes
"CNC(=O)c1ccn(-c2ncc(OC)c3c(C(=O)C(=O)N4CCN(C(=O)c5ccccc5)CC4)c[nH]c23)n1 [Example 276, 1-benzoyl-4-[(4-methoxy-7-(3-methylaminocarbonyl-pyrazol-1-yl)-6-azaindol-3-yl)-oxoacetyl]piperazine]",< 1000 nM,< 0.2 nM,Yes,
Cn1ncnc1-c1ncc(F)c2c(C(=O)C(=O)N3CCN(C(=O)c4ccccc4)CC3)c[nH]c12 [Example 301],< 1000 nM,0.2 to 1000 nM,Yes,
COCc1ncn(-c2ncc(OC)c3c(C(=O)C(=O)N4CCN(C(=O)c5ccccc5)CC4)c[nH]c23)n1 [Example 323],< 1000 nM,,,
COc1cnc(-n2cnc(CCC(=O)O)c2)c2[nH]cc(C(=O)C(=O)N3CCN(C(=O)c4ccccc4)CC3)c12 [Example 329],< 1000 nM,,,
COc1cnc(Nc2ccccn2)c2[nH]cc(C(=O)C(=O)N3CCN(C(=O)c4ccccc4)CC3)c12 [Example 330],< 1000 nM,,,
COc1cnc(N(c2ccccn2)S(C)(=O)=O)c2[nH]cc(C(=O)C(=O)N3CCN(C(=O)c4ccccc4)CC3)c12 [Example 331],< 1000 nM,,,
COc1cnc(-c2nc(-c3ccccc3)n[nH]2)c2[nH]cc(C(=O)C(=O)N3CCN(C(=O)c4ccccc4)[C@H](C)C3)c12 [Example 335],,,,EC50 (HIV-1; [7]): < 1000 nM
CCc1n[nH]c(-c2ncc(OC)c3c(C(=O)C(=O)N4CCN(C(=O)c5ccccc5)[C@H](C)C4)c[nH]c23)n1 [Example 336],,,,EC50 (HIV-1; [7]): < 1000 nM
COc1cnc(-c2nc(-c3ccc(C)cc3)n[nH]2)c2[nH]cc(C(=O)C(=O)N3CCN(C(=O)c4ccccc4)[C@H](C)C3)c12 [Example 337],,,,EC50 (HIV-1; [7]): < 1000 nM
COc1cnc(-c2nc(-c3cccnc3)n[nH]2)c2[nH]cc(C(=O)C(=O)N3CCN(C(=O)c4ccccc4)[C@H](C)C3)c12 [Example 338],,,,EC50 (HIV-1; [7]): < 1000 nM
COc1cnc(-c2nc(-c3cccc(Cl)c3)n[nH]2)c2[nH]cc(C(=O)C(=O)N3CCN(C(=O)c4ccccc4)[C@H](C)C3)c12 [Example 339],,,,EC50 (HIV-1; [7]): < 1000 nM
COc1cnc(-c2nc(-c3ccoc3)n[nH]2)c2[nH]cc(C(=O)C(=O)N3CCN(C(=O)c4ccccc4)[C@H](C)C3)c12 [Example 340],,,,EC50 (HIV-1; [7]): < 1000 nM
COc1cnc(-c2nc(-c3csc(C)n3)n[nH]2)c2[nH]cc(C(=O)C(=O)N3CCN(C(=O)c4ccccc4)[C@H](C)C3)c12 [Example 341],< 1000 nM,,,EC50 (HIV-1; [7]): < 1000 nM
COc1cnc(-c2cnccn2)c2[nH]cc(C(=O)C(=O)N3CCN(C(=O)OC(C)(C)C)CC3)c12 [Precursor 5t],< 1000 nM,,,
